These results are taken from US20230126447A1, “OCULAR DRUG DEPOT FOR COMPLEMENT-MEDIATED DISORDERS” (priority 2020, published 2023).

Each structure is given as a SMILES string.

This data set in a line: QWBA tissue distribution of [14C] Compound 1, albino Wistar Han rats (PO). The following applies: albino male WH rats, 20 mg/kg PO. It counts as in vivo. On the procedure: This study was conducted to determine the tissue distribution of drug-related radioactivity following a single oral (PO) (20 mg/kg) or intravenous (IV) (5 mg/kg) administration of [^14C]
Ten adult male pigmented Long-Evans (LE) rats (Group 1), 1 adult male LE rat (Group 2), and 3 albino Wistar Han (WH) rats (Group 3) received a single oral 20 mg/kg (Groups 1 and 3) or IV 5 mg/kg (Group 2) dose of [^14C] […] The formulation was prepared at a target dose of 5 mg (IV) or 20 mg (PO) […]
The carcasses were frozen in hexane dry-ice and stored at or below −20° C. prior to processing for QWBA. Each carcass was embedded, cut into sagittal sections, and mounted for QWBA. […] The lower limit of quantitation was 0.105 μg equiv/g.

As to `CC(=O)c1nn(CC(=O)N2C[C@H](F)C[C@H]2C(=O)Nc2cccc(Br)n2)c2ccc(-c3cnc(C)nc3)cc12` [Compound 1, (2S,4R)-1-(2-(3-Acetyl-5-(2-methylpyrimidin-5-yl)-1H-indazol-1-yl)acetyl)-N-(6-bromopyridin-2-yl)-4-fluoropyrrolidine-2-carboxamide], the “Concentration of radioactivity at Tmax, non-pigmented skin” value is on record as 2.98 μg equiv/g and the “Concentration of radioactivity at Tmax, uvea of the non-pigmented eye” value is 1.68 μg equiv/g. Besides, for the setting “1 h post-dose”, the “Highest concentration of radioactivity in blood” value stood at 2.77 μg equiv/g. Besides, under “24 h”, the “Concentration of radioactivity, uvea of the non-pigmented eye” value is listed as “BQL”. In addition, the “Concentration of radioactivity, non-pigmented skin” value (168 h) is on record as “BQL”.
